Active and inactive are the calls of the source. No cut-off for these calls is given here.
What was measured:
786-0 = assay: Growth inhibition of human 786-0 cells after 48 hrs by SRB assay; assay type: functional; details: 786-0, 48 h
SNB-19 = assay: Growth inhibition of human SNB19 cells after 48 hrs by SRB assay; assay type: functional; details: SNB-19, 48 h
Malme-3M = assay: Growth inhibition of human MALME-3M cells after 48 hrs by SRB assay; assay type: functional
HOP-62 = assay: Growth inhibition of human HOP62 cells after 48 hrs by SRB assay; assay type: functional; details: HOP-62, 48 h
TK-10 = assay: Growth inhibition of human TK10 cells after 48 hrs by SRB assay; assay type: functional; details: TK-10, 48 h
DU-145 = assay: Growth inhibition of human DU145 cells after 48 hrs by SRB assay; assay type: functional; details: DU-145, 48 h
[1] = Growth inhibition of human HCT15 cells after 48 hrs by SRB assay; assay type: functional; details: HCT-15, 48 h
[2] = Growth inhibition of human HOP92 cells after 48 hrs by SRB assay; assay type: functional; details: HOP-92, 48 h
[3] = Growth inhibition of human UO31 cells after 48 hrs by SRB assay; assay type: functional; details: UO-31, 48 h
CAKI-1 = assay: Growth inhibition of human Caki1 cells after 48 hrs by SRB assay; assay type: functional; details: CAKI-1, 48 h
MDA-MB-231 = assay: Growth inhibition of human MDA-MB-231 cells after 48 hrs by SRB assay; assay type: functional; details: MDA-MB-231, 48 h
MCF7 [4] = assay: Cell cycle arrest in human MCF7 cells assessed as accumulation at G0/G1 phase at 4 uM after 24 hrs by propidium iodide staining-based flow cytometry (reference value: 64.04%); assay type: functional
HT-29 = assay: Growth inhibition of human HT-29 cells after 48 hrs by SRB assay; assay type: functional; details: HT-29, 48 h
[5] = Growth inhibition of human MOLT4 cells after 48 hrs by SRB assay; assay type: functional; details: MOLT-4, 48 h
NCI-H522 = assay: Growth inhibition of human NCI-H522 cells after 48 hrs by SRB assay; assay type: functional; details: NCI-H522, 48 h
MDA-MB-435 = assay: Growth inhibition of human MDA-MB-435 cells after 48 hrs by SRB assay; assay type: functional; details: MDA-MB-435, 48 h
[6] = Growth inhibition of human OVCAR4 cells after 48 hrs by SRB assay; assay type: functional; details: OVCAR-4, 48 h
RPMI-8226 = assay: Growth inhibition of human RPMI8226 cells after 48 hrs by SRB assay; assay type: functional; details: RPMI-8226, 48 h
U-251 = assay: Growth inhibition of human U251 cells after 48 hrs by SRB assay; assay type: functional; details: U-251, 48 h
[7] = Growth inhibition of human LOXIMVI cells after 48 hrs by SRB assay; assay type: functional; details: LOX IMVI
[8] = Growth inhibition of human NCI-ADR-RES cells after 48 hrs by SRB assay; assay type: functional
[9] = Growth inhibition of human OVCAR8 cells after 48 hrs by SRB assay; assay type: functional; details: OVCAR-8, 48 h
[10] = Growth inhibition of human EKVX cells after 48 hrs by SRB assay; assay type: functional
A549 = assay: Growth inhibition of human A549 cells after 48 hrs by SRB assay; assay type: functional; details: A549, 48 h
COLO 205 = assay: Growth inhibition of human COLO205 cells after 48 hrs by SRB assay; assay type: functional; details: COLO 205, 48 h
SR = assay: Growth inhibition of human SR cells after 48 hrs by SRB assay; assay type: functional
PC-3 = assay: Growth inhibition of human PC3 cells after 48 hrs by SRB assay; assay type: functional; details: PC-3, 48 h
[11] = Growth inhibition of human OVCAR3 cells after 48 hrs by SRB assay; assay type: functional; details: OVCAR-3, 48 h
T47D = assay: Growth inhibition of human T47D cells after 48 hrs by SRB assay; assay type: functional
[12] = Growth inhibition of human SF539 cells after 48 hrs by SRB assay; assay type: functional; details: SF-539, 48 h
IGROV-1 = assay: Growth inhibition of human IGROV1 cells after 48 hrs by SRB assay; assay type: functional; details: IGROV-1, 48 h
A498 = assay: Growth inhibition of human A498 cells after 48 hrs by SRB assay; assay type: functional; details: A498, 48 h
MCF7 [13] = assay: Growth inhibition of human MCF7 cells assessed as cell viability at 4 uM after 24 hrs by MTT assay; assay type: functional, cell-based
[14] = Growth inhibition of human BT549 cells after 48 hrs by SRB assay; assay type: functional; details: BT-549, 48 h
HCT-116 = assay: Growth inhibition of human HCT116 cells after 48 hrs by SRB assay; assay type: functional; details: HCT-116, 48 h
CCRF-CEM = assay: Growth inhibition of human CCRF-CEM cells after 48 hrs by SRB assay; assay type: functional
SF-268 = assay: Growth inhibition of human SF268 cells after 48 hrs by SRB assay; assay type: functional; details: SF-268, 48 h
[15] = Growth inhibition of human UACC257 cells after 48 hrs by SRB assay; assay type: functional; details: UACC-257, 48 h
SK-OV-3 = assay: Growth inhibition of human SKOV3 cells after 48 hrs by SRB assay; assay type: functional; details: SK-OV-3, 48 h
[16] = Growth inhibition of human RXF393 cells after 48 hrs by SRB assay; assay type: functional; details: RXF 393, 48 h
NCI-H460 = assay: Growth inhibition of human NCI-H460 cells after 48 hrs by SRB assay; assay type: functional; details: NCI-H460, 48 h
MDA-MB-468 = assay: Growth inhibition of human MDA-MB-468 cells after 48 hrs by SRB assay; assay type: functional; details: MDA-MB-468, 48 h
SK-MEL-28 = assay: Growth inhibition of human SK-MEL-28 cells after 48 hrs by SRB assay; assay type: functional; details: SK-MEL-28, 48 h
K562 = assay: Growth inhibition of human K562 cells after 48 hrs by SRB assay; assay type: functional; details: K562, 48 h
M14 = assay: Growth inhibition of human M14 cells after 48 hrs by SRB assay; assay type: functional; details: M14, 48 h
SK-MEL-5 = assay: Growth inhibition of human SK-MEL-5 cells after 48 hrs by SRB assay; assay type: functional; details: SK-MEL-5, 48 h
NCI-H23 = assay: Growth inhibition of human NCI-H23 cells after 48 hrs by SRB assay; assay type: functional; details: NCI-H23, 48 h
MCF7 [17] = assay: Growth inhibition of human MCF7 cells after 48 hrs by SRB assay; assay type: functional; details: MCF7, 48 h
KM12 = assay: Growth inhibition of human KM12 cells after 48 hrs by SRB assay; assay type: functional; details: KM12, 48 h
NCI-H322M = assay: Growth inhibition of human NCI-H322M cells after 48 hrs by SRB assay; assay type: functional
NCI-H226 = assay: Growth inhibition of human NCI-H226 cells after 48 hrs by SRB assay; assay type: functional; details: NCI-H226, 48 h
SNB-75 = assay: Growth inhibition of human SNB75 cells after 48 hrs by SRB assay; assay type: functional; details: SNB-75, 48 h
[18] = Growth inhibition of human HCC2998 cells after 48 hrs by SRB assay; assay type: functional; details: HCC 2998, 48 h
MCF7 [19] = assay: Cell cycle arrest in human MCF7 cells assessed as accumulation at S phase at 4 uM after 24 hrs by propidium iodide staining-based flow cytometry (reference value: 20.17%); assay type: functional
SN12C = assay: Growth inhibition of human SN12C cells after 48 hrs by SRB assay; assay type: functional
[20] = Growth inhibition of human Hs578T cells after 48 hrs by SRB assay; assay type: functional; details: Hs-578T
[21] = Growth inhibition of human OVCAR5 cells after 48 hrs by SRB assay; assay type: functional; details: OVCAR-5, 48 h
[22] = Growth inhibition of human UACC62 cells after 48 hrs by SRB assay; assay type: functional; details: UACC-62, 48 h
SK-MEL-2 = assay: Growth inhibition of human SK-MEL-2 cells after 48 hrs by SRB assay; assay type: functional; details: SK-MEL-2, 48 h
HL-60(TB) = assay: Growth inhibition of human HL-60(TB) cells after 48 hrs by SRB assay; assay type: functional; details: HL-60, 48 h
MCF7 [23] = assay: Cell cycle arrest in human MCF7 cells assessed as accumulation at G2/M phase at 4 uM after 24 hrs by propidium iodide staining-based flow cytometry (reference value: 15.79%); assay type: functional
[24] = Growth inhibition of human SF295 cells after 48 hrs by SRB assay; assay type: functional; details: SF-295, 48 h
SW-620 = assay: Growth inhibition of human SW620 cells after 48 hrs by SRB assay; assay type: functional; details: SW-620, 48 h
ACHN = assay: Growth inhibition of human ACHN cells after 48 hrs by SRB assay; assay type: functional

## COc1ccc(-c2nc3ccccn3c2/C=C/C(=O)c2cc(OC)c(OC)c(OC)c2)cc1
786-0
  GI50: 3.9 µM
SNB-19
  GI50: 25.2 µM
Malme-3M
  GI50: 1.56 µM
HOP-62
  GI50: 3.62 µM
TK-10
  GI50: 4.16 µM
DU-145
  GI50: 7.21 µM
[1]
  GI50: 4.85 µM
[2]
  GI50: 2.36 µM
[3]
  GI50: 1.31 µM
CAKI-1
  GI50: 8.33 µM
MDA-MB-231
  GI50: 5.22 µM
MCF7 [4]
  Activity: 85.55%
HT-29
  GI50: 4.8 µM
[5]
  GI50: 32.9 µM
NCI-H522
  GI50: 3.12 µM
MDA-MB-435
  GI50: 5.76 µM
[6]
  GI50: 5.72 µM
RPMI-8226
  GI50: 7.5 µM
U-251
  GI50: 3 µM
[7]
  GI50: 6.05 µM
[8]
  GI50: 3.36 µM
[9]
  GI50: 3.92 µM
[10]
  GI50: 7.42 µM
A549
  GI50: 7.96 µM
COLO 205
  GI50: 3.5 µM
SR
  GI50: 3.71 µM
PC-3
  GI50: 19.8 µM
[11]
  GI50: 2.88 µM
T47D
  GI50: 2.59 µM
[12]
  GI50: 2.39 µM
IGROV-1
  GI50: 8.86 µM
A498
  GI50: 10.4 µM
MCF7 [13]
  inhibition: Active
[14]
  GI50: 3.27 µM
HCT-116
  GI50: 2.26 µM
CCRF-CEM
  GI50: 18.8 µM
SF-268
  GI50: 4 µM
[15]
  GI50: 5.85 µM
SK-OV-3
  GI50: 14.8 µM
[16]
  GI50: 2.94 µM
NCI-H460
  GI50: 4.09 µM
MDA-MB-468
  GI50: 11.9 µM
SK-MEL-28
  GI50: 7.1 µM
K562
  GI50: 13.1 µM
M14
  GI50: 9.8 µM
SK-MEL-5
  GI50: 2.72 µM
NCI-H23
  GI50: 3.41 µM
MCF7 [17]
  GI50: 2.38 µM
KM12
  GI50: 4.99 µM
NCI-H322M
  GI50: 4.63 µM
NCI-H226
  GI50: 24.1 µM
SNB-75
  GI50: 5.49 µM
[18]
  GI50: 8.27 µM
MCF7 [19]
  Activity: 11.65%
SN12C
  GI50: 11.4 µM
[20]
  GI50: 2.89 µM
[21]
  GI50: 9.33 µM
[22]
  GI50: 5.58 µM
SK-MEL-2
  GI50: 4.95 µM
HL-60(TB)
  GI50: 34 µM
MCF7 [23]
  Activity: 2.8%
[24]
  GI50: 15.2 µM
SW-620
  GI50: 4.16 µM
ACHN
  GI50: 3.26 µM

Reference: ChEMBL document CHEMBL3217491, “Design, synthesis and biological evaluation of imidazopyridine/pyrimidine-chalcone derivatives as potential anticancer agents” (2010)
